Data as given in the supplement of paper PMC10307832.

Tests used:
Test in all cases: relative viability (nuclei count vs DMSO), 5 days (fraction); higher = more cells survive
Carfilzomib + Bortezomib = compound: CC(C)C[C@H](NC(=O)[C@H](CCc1ccccc1)NC(=O)CN1CCOCC1)C(=O)N[C@@H](Cc1ccccc1)C(=O)N[C@@H](CC(C)C)C(=O)[C@@]1(C)CO1 [Carfilzomib] + CC(C)C[C@H](NC(=O)[C@H](Cc1ccccc1)NC(=O)c1cnccn1)B(O)O [Bortezomib] (partner 0.002 µM)
Method in brief: (§1)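 After 5 days of treatment, lung cancer cells in 1536-well plates were fixed and stained in a single step (final 0.05% Triton X-100, 1% formaldehyde, 1 ug/ml Hoechst) and their nuclei counted on 4× images. Treatment had been applied by pin tool the day after seeding as one drug alone or as a fixed anchor-drug dose with five library-drug doses (not always all listed) in √10 steps. Relative viability is the nuclei count of treated wells divided by that of vehicle wells, and values are medians of duplicate plates.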

Carfilzomib + Tozasertib = compound: CC(C)C[C@H](NC(=O)[C@H](CCc1ccccc1)NC(=O)CN1CCOCC1)C(=O)N[C@@H](Cc1ccccc1)C(=O)N[C@@H](CC(C)C)C(=O)[C@@]1(C)CO1 [Carfilzomib] + Cc1cc(Nc2cc(N3CCN(C)CC3)nc(Sc3ccc(NC(=O)C4CC4)cc3)n2)n[nH]1 [Tozasertib] (partner 0.1 µM)
Method in brief: as §1

Olaparib + Bortezomib = compound: O=C(c1cc(Cc2n[nH]c(=O)c3ccccc23)ccc1F)N1CCN(C(=O)C2CC2)CC1 [Olaparib] + CC(C)C[C@H](NC(=O)[C@H](Cc1ccccc1)NC(=O)c1cnccn1)B(O)O [Bortezomib] (partner 0.002 µM)
Method in brief: as §1

Crizotinib + Tozasertib = compound: C[C@@H](Oc1cc(-c2cnn(C3CCNCC3)c2)cnc1N)c1c(Cl)ccc(F)c1Cl [Crizotinib] + Cc1cc(Nc2cc(N3CCN(C)CC3)nc(Sc3ccc(NC(=O)C4CC4)cc3)n2)n[nH]1 [Tozasertib] (partner 0.1 µM)
Method in brief: as §1

Cell Line	relative viability (Carfilzomib + Bortezomib; first compound 0.001 µM)	relative viability (Carfilzomib + Bortezomib; first compound 0.003162 µM)	relative viability (Carfilzomib + Bortezomib; first compound 0.01 µM)	relative viability (Carfilzomib + Bortezomib; first compound 0.03162 µM)	relative viability (Carfilzomib + Bortezomib; first compound 0.1 µM)	relative viability (Carfilzomib + Tozasertib; first compound 0.001 µM)	relative viability (Carfilzomib + Tozasertib; first compound 0.003162 µM)	relative viability (Carfilzomib + Tozasertib; first compound 0.01 µM)	relative viability (Carfilzomib + Tozasertib; first compound 0.03162 µM)	relative viability (Carfilzomib + Tozasertib; first compound 0.1 µM)	relative viability (Olaparib + Bortezomib; first compound 0.08 µM)	relative viability (Olaparib + Bortezomib; first compound 0.253 µM)	relative viability (Olaparib + Bortezomib; first compound 2.53 µM)	relative viability (Olaparib + Bortezomib; first compound 8 µM)	relative viability (Crizotinib + Tozasertib; first compound 0.01 µM)	relative viability (Crizotinib + Tozasertib; first compound 0.03162 µM)	relative viability (Crizotinib + Tozasertib; first compound 0.1 µM)	relative viability (Crizotinib + Tozasertib; first compound 0.3162 µM)	relative viability (Crizotinib + Tozasertib; first compound 1 µM)
NCI-H520	0.45	0.179	0.142	0.129	0.132	0.515	0.492	0.371	0.227	0.259	0.788	0.336	0.671	0.209	0.47	0.469	0.448	0.45	0.458
NCI-H596	0.885	0.987	0.839	0.483	0.2	1.16	0.878	0.721	0.222	0.168	1.3	0.878	0.865	0.794	0.887	0.804	0.924	0.861	
NCI-H647	0.674	0.72	0.154	0.0243	0.0299	0.452	0.378	0.171	0.141	0.0292	1.18	0.942	0.864	0.416	0.267	0.305	0.248	0.26	0.204
NCI-H650	0.587	0.701	0.619	0.145	0.157		0.9	0.745	0.588	0.157	0.978	0.672	0.561	0.516	0.772	0.726	0.721	0.616	0.809
